# Measurements taken from US8562986B2, “Engineered anti-alpha V-integrin hybrid antibodies” (Merck Patent GmbH, priority 2007, dated 2013).
# Entries after “also recorded” stand apart in the source; their conditions may differ. Like-named read-outs stand apart in the source and are kept apart here.
# Assays:
# HUVEC = assay: cells; conditions: for additive effect with Cilengitide: chemotherapeutic combined with Cilengitide; for additive effect with DI-17E6: chemotherapeutic combined with DI-17E6; for additive effect with Mab 17E6: chemotherapeutic combined with Mab 17E6
# Protocol: The experimental design gives answer to the question whether blockade of the one lowered the IC50 of the other for blockade endothelial cell growth in the presence of tumor growth factors VEGFA and FGF2.
# Plates were coated with 100 μl VN at 1 μg/ml in PBS per 96-well at 4° C. overnight. […] When added in combination the two test substances were mixed at the starting concentrations and the mixture was serially diluted as for the single agents alone. In some assays the chemotherapeutics were serially diluted in the presence of a constant amount of the alpha V blockers at the IC50 or IC70 concentrations. Plates were incubated for 72 hours, then relative cell number was determined by the addition of 20 ul/well Alamar Blue (Resazurin).
# Points were run in duplicate or in triplicate. Reagent blanks, containing media plus Alamar Blue without cells, were run on each plate.
# Tests were routinely run using HUVEC in media containing 10 ng/ml FGF-2 or HDMVEC in media containing 10 ng/ml VEGF.
# [1] = tested on: VEGF-induced migration of human endothelial cells on vitronectin; conditions: read-out: EC50, block of VEGF-induced migration of human endothelial cells on vitronectin
# [2] = tested on: human endothelial cell adhesion to vitronectin; assay: Endothelial cell adhesion to vitronectin; type: cell-based; conditions: read-out: EC50, inhibition of human endothelial cell adhesion to vitronectin
# [3] = tested on: human melanoma cell lines m21, SKMEL-23, SKMEI, MeWo, WM-793; conditions: cisplatin, paclitaxel, vinblastin, vincristin, temoyolomide
# [4] = Serum levels and anti-antibody response in monkey Matrigel plug experiment; type: in vivo; conditions: monkeys, single i.v. injection, up to end of study
# Protocol: Serums were collected at three different points (from the legs): immediately before antibody injection, immediately (1-2 minutes) after antibody injection, and at the end of the study before animal sacrifice. […] To detect given serum dilution) were found at the two different time points in serum: immediately after antibody administration and at the end of the study.
# [5] = First clinical study in healthy volunteers, anti-drug antibodies; type: in vivo, human
# From the text: This was meanwhile confirmed by a first clinical study carried out in the US in 2006/2007. […] In contrast to that, mouse 17E6 develops in animal models a strong immune response.
# [6] = tested on: bFGF induced angiogenesis; assay: Matrigel plug model in monkeys; type: in vivo, Cynomologus monkeys; conditions: 6 days
# Protocol: Matrigel plugs containing bFGF were implanted s.c. into the abdomen of healthy Cynomologus monkeys. The animals were injected once with EMD 525797 i.v. at either 10 mg/Kg or 30 mg/Kg. Evaluation of angiogenesis was carried out 6 days after by quantification of the hemoglobin content in the Matrigel plugs.
# [7] = tested on: platelet thrombus formation; assay: Thrombus formation in perfusion chamber; type: cell-based; conditions: dose-dependent
# Protocol: To exclude possible side effects of the antibody on platelets, EMD 525797 was evaluated for inhibition of platelet aggregation in vitro with human platelet rich plasma/collagen. […] Aggregation and activation studies were carried out using Platelet Rich Plasma (PRP). Thrombus formation by perfusion chamber with exposed subendothelial matrix.
# M21-L tumors = assay: SCID mouse-human skin chimera model; type: in vivo; conditions: 1 mg/dose i.p. 3 times per week, from one day after inoculation
# From the text: Human skin containing human M21 melanoma cells were grafted by implantation/transplantation onto SCID or nude mice. Experimental tumors grew in this tissue after intradermal inoculation of tumor cells and the initial angiogenic vasculature was derived from vessels in the human skin. In the next experiment, the use of M21-L cells that have no av-integrins means that only those integrins expressed on the endothelial cells within the grafted human skin were targeted.
# αv-integrins = assay: Species specificity (immuno precipitation, western blotting); type: binding, human and monkey
# Protocol: The molecular basis for this unusual profile has been unequivocally established by epitope mapping, sequence comparison, and x-ray co-crystallography. The epitope recognized by DI-17E6 is confirmed as unique to human and monkey by immuno precipitation and western blotting analysis performed with several species.
# ADCC and CDC = type: cell-based
# bacteria = assay: Bacterial screening test for mutagenic potential; type: cell-based
# [8] = 4-weeks / repeat-dose toxicology study; type: in vivo, cynomolgus monkey
# CAKI-1 renal carcinoma = CAKI-1 renal carcinoma xenograft, monotherapy; type: in vivo, SCID or nude mice; conditions: i.p. once per week
# CAKI-1 xenograft tumors = assay: CAKI-1 renal cell carcinoma xenograft, with Erbitux; type: in vivo, mice; conditions: 17.1 mg/kg loading then […] weekly i.p.
# Protocol: The renal cell carcinoma cell line CAKI-1 was grown in RPMI containing 10% FCS (heat-inactivated) plus 2 mM glutamine. 1 mM sodium pyruvate. 100 units/ml penicillin and 100 ug/ml streptomycin. Cells were passaged at confluence by washing once in cation-free PBS followed by a 3 minute incubation in trypsin (0.5 ug/ml)/EDTA (0.2 ug/ml) solution in PBS at 37° C. Cells were recovered in medium, centrifuged and taken up in medium and counted.
# The treatment started for all groups at day 0 of experiment (same day of cell injection).
# [9] = T-cell epitope mapping score; set-up: species or system human; conditions: T-cell epitope scoring
# αvβ3 integrin = αvβ3 integrin (Homo sapiens, UniProt P06756); assay: Integrin binding ELISA
# αvβ3 integrin, sequence (P06756 31-889 limits assumed): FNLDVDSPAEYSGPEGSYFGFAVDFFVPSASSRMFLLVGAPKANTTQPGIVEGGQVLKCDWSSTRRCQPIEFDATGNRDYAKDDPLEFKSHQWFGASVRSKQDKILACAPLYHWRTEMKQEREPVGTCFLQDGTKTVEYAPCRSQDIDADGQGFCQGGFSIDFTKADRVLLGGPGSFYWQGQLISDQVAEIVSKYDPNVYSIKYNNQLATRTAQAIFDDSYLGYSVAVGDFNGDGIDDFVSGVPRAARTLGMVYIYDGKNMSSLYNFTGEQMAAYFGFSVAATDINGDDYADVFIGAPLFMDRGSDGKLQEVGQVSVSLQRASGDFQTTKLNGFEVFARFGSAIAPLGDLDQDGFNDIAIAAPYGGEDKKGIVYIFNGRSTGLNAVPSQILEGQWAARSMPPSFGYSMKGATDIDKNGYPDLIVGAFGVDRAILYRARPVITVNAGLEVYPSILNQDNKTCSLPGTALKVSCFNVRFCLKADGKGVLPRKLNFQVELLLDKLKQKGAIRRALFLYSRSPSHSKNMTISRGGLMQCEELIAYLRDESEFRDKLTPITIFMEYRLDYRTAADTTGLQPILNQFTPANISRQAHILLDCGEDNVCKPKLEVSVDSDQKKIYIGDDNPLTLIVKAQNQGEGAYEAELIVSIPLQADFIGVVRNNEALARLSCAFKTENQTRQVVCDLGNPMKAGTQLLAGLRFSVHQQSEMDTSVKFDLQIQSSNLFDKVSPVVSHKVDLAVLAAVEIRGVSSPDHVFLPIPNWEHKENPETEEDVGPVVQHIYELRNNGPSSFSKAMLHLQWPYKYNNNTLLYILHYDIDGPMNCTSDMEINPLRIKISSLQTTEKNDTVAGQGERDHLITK
# αvβ3 integrin, sequence (P06756 891-1048 partner limits assumed): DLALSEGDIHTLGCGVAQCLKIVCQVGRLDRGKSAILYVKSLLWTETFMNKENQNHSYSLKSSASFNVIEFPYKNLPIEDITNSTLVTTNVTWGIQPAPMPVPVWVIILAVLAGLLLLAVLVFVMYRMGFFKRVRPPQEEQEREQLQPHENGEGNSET
# αvβ3 integrin, sequence (P05106 27-788 partner): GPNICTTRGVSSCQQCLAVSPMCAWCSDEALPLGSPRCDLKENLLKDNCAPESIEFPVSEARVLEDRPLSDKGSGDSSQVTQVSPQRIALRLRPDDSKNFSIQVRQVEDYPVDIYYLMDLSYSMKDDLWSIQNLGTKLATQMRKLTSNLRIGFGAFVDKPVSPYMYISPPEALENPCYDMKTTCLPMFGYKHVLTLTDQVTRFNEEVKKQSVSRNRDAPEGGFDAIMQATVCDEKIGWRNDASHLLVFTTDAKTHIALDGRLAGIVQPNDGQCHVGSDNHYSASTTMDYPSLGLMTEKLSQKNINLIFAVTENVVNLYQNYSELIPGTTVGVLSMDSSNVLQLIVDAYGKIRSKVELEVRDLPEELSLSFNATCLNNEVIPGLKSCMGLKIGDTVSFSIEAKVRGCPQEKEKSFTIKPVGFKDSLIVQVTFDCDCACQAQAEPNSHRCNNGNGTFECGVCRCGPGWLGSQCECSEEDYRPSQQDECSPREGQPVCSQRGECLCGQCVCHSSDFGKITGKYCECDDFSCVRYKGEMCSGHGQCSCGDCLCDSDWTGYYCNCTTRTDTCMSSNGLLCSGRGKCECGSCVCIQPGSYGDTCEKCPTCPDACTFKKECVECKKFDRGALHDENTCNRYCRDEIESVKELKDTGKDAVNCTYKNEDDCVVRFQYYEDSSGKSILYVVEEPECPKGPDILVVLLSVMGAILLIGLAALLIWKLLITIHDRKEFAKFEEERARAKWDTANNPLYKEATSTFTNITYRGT
# Protocol: Assay to determine binding of DI17E6 antibody to alpha V integrin receptor subunit The ability of the DI17E6 antibody to bind alpha V integrin was assayed using an ELISA. Briefly, various amounts of antibody were added to wells containing alpha V integrin, wells were then washed, and the bound antibody was assayed according to standard procedures.
# [10] = Single dose immunogenicity study in monkeys (sandwich ELISA); type: in vivo, monkey; conditions: 1 mg/Kg single i.v., 1, 3 and 6 weeks
# Protocol: In another study the pharmacy kinetic parameters of a single dose of DI-17E6 in monkeys was assessed and in addition, this study was planned to investigate the immunogenicity of DI-17E6. […] Length of the assay was 6 weeks. Serums were drawn pre-dose, and 1, 3, and 6 weeks after administration. Levels of monkey antibodies against DI-17E6 were analyzed. In this study, immunogenicity was directly addressed using a specific sandwich ELISA method designated for this type of studies (method not validated yet).
# NP18-b3 pancreatic tumor = assay: Orthotopic pancreatic xenograft; type: in vivo, nude mice; conditions: EMD 525797 500 μg per animal or gemcitabine 50 mg/Kg, i.p. 3 times a week; 6 weeks
# Protocol: NP18-b3 pancreatic human cell line, which expresses αvβ3-integrin, was implanted orthotopically into the pancreas of immunosuppressed mice. The animals were randomized to and one week later treatment with drugs and vehicle started.
# Tumors were removed and cut into pieces of 10 mg each. These pieces were then sutured to the pancreas of healthy animals (one piece per animal). 4-6 weeks later, tumors were removed, cut into pieces again and stitched into new animals. Those new animals were then randomized and one week later treatment with drugs and vehicle was started. EMD 525797 was dosed i.p. at 500 μg per animal three times a week. Gemcitabine was administered as a suboptimal dose of 50 mg/Kg 3 times a week (suboptimal dose based on previous studies). In a fourth group, EMD 525797 was combined with suboptimal doses of gemcitabine based on previous experiments. Tumor growth measurement (weight of the removed tumors) was made 6 weeks after the tumor grafting.
# [11] = HUVEC, 10 ng/ml FGF-2, 72 hours, single agent
# [12] = Homo sapiens, HUVEC, 72 h, 10 ng/ml FGF-2, 72 hours, single agent
molecule,measurement,setting,value
C[C@]12CC[C@@H]3c4ccc(OC(=O)N(CCCl)CCCl)cc4CC[C@H]3[C@@H]1CC[C@@H]2O [Estramustine],IC50,"HUVEC; Homo sapiens, HUVEC, 72 h",182000 nM
same,additive effect with Cilengitide,HUVEC,no
same,additive effect with DI-17E6,HUVEC,no
same,additive effect with Mab 17E6,HUVEC,no
"DI-17E6: engineered de-immunized anti-αv integrin antibody: 17E6 CDRs, h425 light chain frameworks, human IgG2 with modified IgG1 hinge, N297Q, F296A",IC50,HUVEC; [11],4 ng/mL
same,EC50,[1],~50 nM
same,EC50,[2],~10 nM
same,effect on the chemotherapeutic agent,[3],not more than additive affects
same,serum levels of antibody,[4],high serum levels at each time-point
same,anti-drug antibodies in volunteers,"[5]; group of 250 mg, 6 volunteers",one volunteer developed anti-drug antibodies
same,anti-drug antibodies in volunteers,[5]; higher dose groups (500 mg and more),no volunteer developed any immune response; also recorded: not detected
same,new blood vessel formation (hemoglobin content of plugs),[6]; 10 mg/Kg i.v. once,inactive
same,new blood vessel formation (hemoglobin content of plugs),[6]; 30 mg/Kg i.v. once,highly efficacious
same,platelet thrombus formation in the perfusion chamber,[7],blocks
same,growth of M21-L tumors,M21-L tumors,inhibited growth
same,species specificity,αv-integrins,human and monkey αv-integrins only
same,ADCC and CDC,ADCC and CDC,neither antibody dependent cell cytotoxicity (ADCC) nor complement dependent cytotoxicity (CDC)
same,mutagenic potential,bacteria,not mutagenic
same,tolerability,"[8]; 10, 33 and 100 mg/kg once weekly for 4 weeks, intravenous infusion (1 h)",well tolerated
same,treatment-related effects in 4-weeks toxicology study,"[8]; clinical observations, body weight, ECG, clinical pathology, organ weight, histopathology",did not reveal any treatment-related effects
same,safety pharmacology alerts,[8]; repeat-dose-toxicity studies in cynomolgus monkey,No safety pharmacology alerts
same,tumor volume,CAKI-1 renal carcinoma; high dose (500 ug/ml),complete reduction of tumor volume
same,tumor volume/size,CAKI-1 renal carcinoma; low (1 ug/ml) to medium (100 ug/ml serum) doses,can reduce tumor volume/size
same,"T/C at day 40, end of treatment",CAKI-1 xenograft tumors,25%
same,serum trough values,CAKI-1 xenograft tumors; mice,100 µg/mL
same,"Total score, heavy chain",[9]; heavy chain,85
same,"Total score, light chain",[9]; light chain,92
same,binding to αvβ3 integrin (in words),αvβ3 integrin,similar
same,binding to αvβ3 integrin (in words),αvβ3 integrin; listed as DI-17E6-g2h(NtoQ)(C60Y),retains binding affinity
same,monkey antibodies against the antibody,[10],no monkey antibodies against DI-17E6 could be detected
O=c1[nH]cc(F)c(=O)[nH]1 [5FU],IC50,HUVEC; [11],14500 nM
same,additive effect with Cilengitide,HUVEC,yes
same,additive effect with DI-17E6,HUVEC,yes
same,additive effect with Mab 17E6,HUVEC,yes
Nc1ccn([C@@H]2O[C@H](CO)[C@@H](O)C2(F)F)c(=O)n1 [Gemcitabine],IC50,HUVEC; [12],4 nM
same,additive effect with Cilengitide,HUVEC,yes
same,additive effect with DI-17E6,HUVEC,yes
same,additive effect with Mab 17E6,HUVEC,yes
same,"tumor size and weight, monotherapy",NP18-b3 pancreatic tumor,not active
COc1cc([C@@H]2c3cc4c(cc3[C@@H](O[C@@H]3O[C@@H]5CO[C@@H](C)O[C@H]5[C@H](O)[C@H]3O)[C@H]3COC(=O)[C@H]23)OCO4)cc(OC)c1O [Etoposide],IC50,HUVEC; [12],700 nM
same,additive effect with Cilengitide,HUVEC,yes
same,additive effect with DI-17E6,HUVEC,yes
same,additive effect with Mab 17E6,HUVEC,yes
COc1cccc2c1C(=O)c1c(O)c3c(c(O)c1C2=O)C[C@@](O)(C(=O)CO)C[C@@H]3O[C@H]1C[C@H](N)[C@H](O)[C@H](C)O1 [Doxorubicin],IC50,HUVEC; [12],200 nM
same,additive effect with Cilengitide,HUVEC,yes
same,additive effect with DI-17E6,HUVEC,yes
same,additive effect with Mab 17E6,HUVEC,yes
N[C@@H](Cc1ccc(N(CCCl)CCCl)cc1)C(=O)O [Melphalan],IC50,"HUVEC; Homo sapiens, HUVEC, 72 h",11400 nM
same,additive effect with Cilengitide,HUVEC,yes
same,additive effect with DI-17E6,HUVEC,yes
same,additive effect with Mab 17E6,HUVEC,yes
Cn1nnc2c(C(N)=O)ncn2c1=O [Temozolmide],IC50 (in words),HUVEC; [11],inactive
same,additive effect with Cilengitide,HUVEC,no
same,additive effect with DI-17E6,HUVEC,no
same,additive effect with Mab 17E6,HUVEC,no
"CC(=O)O[C@H]1C(=O)[C@@]2(C)[C@H]([C@H](OC(=O)c3ccccc3)[C@]3(O)C[C@H](OC(=O)[C@H](O)[C@@H](NC(=O)c4ccccc4)c4ccccc4)C(C)=C1C3(C)C)[C@]1(OC(C)=O)CO[C@@H]1C[C@@H]2O [Taxol, Paclitaxel]",IC50,HUVEC; [11],0.3 ng/mL
same,IC50,HUVEC; [12],0.27 ng/mL
same,IC50,"HUVEC; Homo sapiens, HUVEC, read-out: IC50 in combination with 17E6, HUVEC, combination with 17E6",0.18 ng/mL
same,IC50,"HUVEC; Homo sapiens, HUVEC, read-out: IC50 in combination with Cilengitide, HUVEC, combination with Cilengitide",0.13 ng/mL
same,IC50,"HUVEC; Homo sapiens, HUVEC, read-out: IC50 in combination with DI-17E6, HUVEC, combination with DI-17E6",0.1 ng/mL
same,additive effect with Cilengitide,HUVEC,yes
same,additive effect with DI-17E6,HUVEC,yes
same,additive effect with Mab 17E6,HUVEC,yes
N.N.[Cl][Pt][Cl] [Cisplatinin],IC50,HUVEC; [11],13200 nM
same,additive effect with Cilengitide,HUVEC,yes
same,additive effect with DI-17E6,HUVEC,yes
same,additive effect with Mab 17E6,HUVEC,yes
CC[C@]1(O)C[C@H]2CN(CCc3c([nH]c4ccccc34)[C@@](C(=O)OC)(c3cc4c(cc3OC)N(C=O)[C@H]3[C@@](O)(C(=O)OC)[C@H](OC(C)=O)[C@]5(CC)C=CCN6CC[C@]43[C@@H]65)C2)C1 [Vincrisitin],IC50,HUVEC; [12],0.7 nM
same,additive effect with Cilengitide,HUVEC,yes
same,additive effect with DI-17E6,HUVEC,yes
same,additive effect with Mab 17E6,HUVEC,yes
CC[C@@]1(O)C(=O)OCc2c1cc1n(c2=O)Cc2cc3ccccc3nc2-1 [Camptothecin],IC50,HUVEC; [12],80 nM
same,additive effect with Cilengitide,HUVEC,yes
same,additive effect with DI-17E6,HUVEC,yes
same,additive effect with Mab 17E6,HUVEC,yes
